From patent publication US20240269304A1, “BCL-XL INHIBITOR ANTIBODY-DRUG CONJUGATES AND METHODS OF USE THEREOF” (Novartis AG, priority 2020, published 2024)
Like-named read-outs stand apart in the source and are kept apart here. One block for each compound: values may come before it.

Key:
H1650 cells = assay: CellTiterGlo (CTG) cell viability, 3D, 120 h, H1650 (Example 8); format: cell-based, human; settings: Homo sapiens, NCI-H1650, H1650 3D
HPB-ALL (T-ALL) = assay: CellTiter-Glo viability 72 h, single agent or 1/1 combination with vincristine, ABT-199 or Compound A2, HPB-ALL (Example 9); format: cell-based; settings: Homo sapiens, HPBALL, single agent or 1/1 combination as labelled
Method: (§1) Cell lines were cultured in the media described above at 37° C. in a humidified atmosphere containing 5% CO2. Cells were seeded in 96 well clear bottom plates (96 well clear-bottom, white, Corning reference 3903) and exposed to the payloads or ADCs at single agents or in 1/1 combinations with vincristine, ABT-199 or compound A2 for 72 h (serially diluted; 9 concentrations each, triplicates). Effects of payloads or ADCs on cell viability were assessed after 3 days of incubation at 37° C./5% CO2 by quantification of cellular ATP levels using CellTiter-Glo reagent (Promega Ref: G7571) at 75 μL reagent/well. All the conditions were tested in triplicates. Luminescence was quantified on a multipurpose plate reader. IC50s were calculated using standard four-parametric curve fitting. […] Each experiment was performed at least twice, with results being reproducible.

ALL-SILL (T-ALL) = assay: CellTiter-Glo viability 72 h, single agent or 1/1 combination, ALL-SIL (Example 9); format: cell-based; settings: single agent or 1/1 combination as labelled
Method: Cell lines were cultured in the media described above at 37° C. in a humidified atmosphere containing 5% CO2. […] Effects of payloads or ADCs on cell viability were assessed after 3 days of incubation at 37° C./5% CO2 by quantification of cellular ATP levels using CellTiter-Glo reagent (Promega Ref: G7571) at 75 μL reagent/well. All the conditions were tested in triplicates. Luminescence was quantified on a multipurpose plate reader. IC50s were calculated using standard four-parametric curve fitting.

LOUCY (T-ALL) = assay: CellTiter-Glo viability 72 h, single agent or 1/1 combination, LOUCY (Example 9); format: cell-based; settings: single agent or 1/1 combination as labelled
Method: as §1

SUDHL8 (DLBCL) = assay: CellTiter-Glo viability 72 h, single agent or 1/1 combination, SUDHL8 (Example 9); format: cell-based; settings: Homo sapiens, SU-DHL-8, single agent or 1/1 combination as labelled
Method: as §1

MM1S (MM) = assay: CellTiter-Glo viability 72 h, single agent or 1/1 combination, MM1S (Example 9); format: cell-based; settings: Homo sapiens, MM1.S, single agent or 1/1 combination as labelled
Method: as §1

corl279 = assay: In vitro ADC activity with combination partners (Venetoclax, Topotecan), CellTiter-Glo 5 days, corl279 (Example 13); format: cell-based; settings: single agent
Method: (§2) Antibody drug conjugates (ADCs) targeting IgG, B7H3, CD56, DLK1, DLL3, EpCAM, and SEZ6 were tested against cancer cell lines obtained from ATCC (American Type Culture Collection) or from other commercial cell line vendors (cor1279, ncih1436, ncih146, ncih211, ncih524). The cells were cultured in media that is optimal for their growth at 5% CO2, 37° C. in a tissue culture incubator. Prior to seeding for the proliferation assay, the cells were split at least 2 days before the assay to ensure optimal growth density. On the day of seeding, cells were lifted off tissue culture flasks using 0.25% trypsin. Cell viability and cell density were determined using a cell counter (Vi-Cell XR Cell Viability Analyzer, Beckman Coulter). Cells with higher than 85% viability were seeded in white clear bottom 384-well plates (Greiner cat #781098) at a density of 1000 cells per well in 50 μL of standard growth media. Plates were incubated at 37° C. overnight in a tissue culture incubator.
(§3) The ADCs were prepared in standard phosphate buffered solution to desired concentrations. A series of 10 dilutions were made for each ADC. The prepared drug treatments were then added to the cells resulting in final concentrations of 300 nM to 0.015 nM. Combination partners (Venetoclax and Topotecan) were added at fixed concentrations. Acoustic transfer devices (Echo525, Echo550, Beckman Coulter) were used to add the ADCs or combination partners to the cells. Each treatment was tested in triplicate assay plates. Plates were incubated at 37° C. overnight or for 5 days in a tissue culture incubator. The ability of the ADCs to inhibit cell proliferation and survival was assessed using the Promega CellTiter-Glo® proliferation assay. Plates were incubated at room temperature for 20 minutes to stabilize luminescent signals prior to reading using a multimode plate reader (Pherastar, BMG). Luminescent counts of untreated cells were taken the day after seeding (Day 0 readings), and after 5 days of treatment (Day 5 readings). The Day 5 readings of the untreated cells were compared to the Day 0 readings. Assays with at least one cell doubling during the incubation period were considered valid. To evaluate the effect of the drug treatments, luminescent counts from wells containing untreated cells (100% viability) were used to normalize treated samples. The concentrations of treatment required to inhibit 50% of cell growth or survival ([…]) were calculated using a four parameter logistic regression equation.

ncih1436 = assay: In vitro ADC activity with combination partners, CellTiter-Glo 5 days, ncih1436 (Example 13); format: cell-based; settings: single agent
Method: as §2, §3

ncih146 = assay: In vitro ADC activity with combination partners, CellTiter-Glo 5 days, ncih146 (Example 13); format: cell-based; settings: single agent
Method: as §2, §3

ncih211 = assay: In vitro ADC activity with combination partners, CellTiter-Glo 5 days, ncih211 (Example 13); format: cell-based; settings: single agent
Method: as §2, §3

ncih524 = assay: In vitro ADC activity with combination partners, CellTiter-Glo 5 days, ncih524 (Example 13); format: cell-based; settings: single agent
Method: as §2, §3

[1] = tested on: H1650 human non-small cell lung carcinoma (NSCLC) model; assay: In vivo efficacy of EGFR2-Bcl-xL inhibitor ADC in combination with docetaxel, H1650 xenografts (Example 15); design: species or system female SCID mice; settings: Vehicle iv + docetaxel 7.5 mg/kg qdx1 iv 24 h later
Method: H1650 cells were cultured at 37° C. in an atmosphere of 5% CO2 in air in RPMI1640 (BioConcept Ltd. Amimed, #1-41F01-1) supplemented with 10% FCS (BioConcept Ltd. Amimed, #2-01F30-1), 2 mM L-glutamine (BioConcept Ltd. Amimed, #5-10K00-H) and 1 mM sodium pyruvate (BioConcept Ltd. Amimed, #5-60F00-H), 10 mM HEPES (Gibco #11560496) and D-glucose 1.25g/500 mL medium (Gibco, #A24940-01). To establish H1650 xenografts, cells were harvested and re-suspended in HBSS (Gibco, #14175)/Matrigel (Corning #354234) (1:1 v/v) before injecting 100 μL containing 5×10^6 cells subcutaneously in the flanks of female SCID mice (Taconic, Europe). Tumor growth was monitored regularly post cell inoculation and animals were randomized into treatment groups (n=6) with a mean tumor volume of about 150 mm^3. The ADCs were administered intravenously (i.v.) once at the start of treatment at 30 mg/kg in combination with 7.5 mg/kg docetaxel (Zentiva: 1 ml/20 mg) which was administered i.v. once 24 h after the ADCs. Doses were adjusted to individual mouse body weights. The i.v. dose volume was 10 ml/kg and each ADC was dissolved in 0.9% (w/v) NaCl in water and the docetaxel stock solution was diluted to appropriate concentration with 5% (w/v) sterile glucose solution prior to administration.
Tumor volume data on day 21 and 28 post treatment initiation were analyzed for statistical difference relative to vehicle control group and EGFR-Bcl-xLi (L109A-P1) ADC, using one way ANOVA post hoc Tukey's multiple comparisons test (Indigo Software). Results are presented as mean±SEM.
As a measure of efficacy the %T/C value was calculated on day 21 according to:
(Δtumor volume treated/Δtumor volume control)*100 Tumor regression was calculated according to:
−(Δtumor volume treated/tumor volume treated at start)*100
Where Δtumor volumes represent the mean tumor volume on the evaluation day minus the mean tumor volume at the start of the experiment.

IC50 (H1650 cells; experiment n1, read-out: H1650 3D CTG IC50 n1): 2.8 nM | IC50 (H1650 cells; experiment n2, read-out: H1650 3D CTG IC50 n2): 3 nM | IC50 (H1650 cells; mean of n1 and n2, read-out: H1650 3D CTG IC50 Mean of n1 and n2): 2.9 nM | IC50 (SUDHL8 (DLBCL); mean, read-out: SUDHL8 (DLBCL) IC50 mean): 7.78 nM | IC50 (SUDHL8 (DLBCL); n1, read-out: SUDHL8 (DLBCL) IC50 n1): 5.92 nM | IC50 (SUDHL8 (DLBCL); n2, read-out: SUDHL8 (DLBCL) IC50 n2): 9.64 nM | IC50 (MM1S (MM); mean, read-out: MM1S (MM) IC50 mean): 74.8 nM | IC50 (MM1S (MM); n1, read-out: MM1S (MM) IC50 n1): 56.7 nM | IC50 (MM1S (MM); n2, read-out: MM1S (MM) IC50 n2): 92.9 nM
Structure (SMILES): Cc1c(Nc2nc3ccccc3s2)nnc2c1CCCN2c1ccc(-c2cnn(CC34CC5(C)CC(C)(C3)CC(OCCNCCCO)(C5)C4)c2C)c(C(=O)O)n1 [P25, 6-[3-(1,3-benzothiazol-2-ylamino)-4-methyl-6,7-dihydro-5H-pyrido[2,3-c]pyridazin-8-yl]-3-[1-[[3-[2-(3-hydroxypropylamino)ethoxy]-5,7-dimethyl-1-adamantyl]methyl]-5-methyl-pyrazol-4-yl]pyridine-2-carboxylic acid]
IC50 (HPB-ALL (T-ALL); mean, read-out: HPB-ALL (T-ALL) IC50 mean): 4.6 nM | IC50 (HPB-ALL (T-ALL); n1, read-out: HPB-ALL (T-ALL) IC50 n1): 4.2 nM | IC50 (HPB-ALL (T-ALL); n2, read-out: HPB-ALL (T-ALL) IC50 n2): 5 nM | IC50 (ALL-SILL (T-ALL); mean, read-out: ALL-SILL (T-ALL) IC50 mean): 1.75 nM | IC50 (ALL-SILL (T-ALL); n1, read-out: ALL-SILL (T-ALL) IC50 n1): 2.1 nM | IC50 (ALL-SILL (T-ALL); n2, read-out: ALL-SILL (T-ALL) IC50 n2): 1.39 nM | IC50 (LOUCY (T-ALL); mean, read-out: LOUCY (T-ALL) IC50 mean): 1.03 nM | IC50 (LOUCY (T-ALL); n1, read-out: LOUCY (T-ALL) IC50 n1): 0.8 nM | IC50 (LOUCY (T-ALL); n2, read-out: LOUCY (T-ALL) IC50 n2): 1.26 nM

Structure (SMILES): CC[C@@]1(O)C(=O)OCc2c1cc1n(c2=O)Cc2cc3c(CN(C)C)c(O)ccc3nc2-1 [Topotecan, topotecan]
GI50 (corl279; Homo sapiens, COR-L279, 120 h): 0.0152 µM | GI Amax corl279 (corl279): −95.95 | GI50 (ncih1436; Homo sapiens, NCI-H1436, 120 h): 0.515 µM | GI Amax ncih1436 (ncih1436): −23.22 | GI50 (ncih146; Homo sapiens, NCI-H146, 120 h): 0.00304 µM | GI Amax ncih146 (ncih146): −91.77 | GI50 (ncih211; Homo sapiens, NCI-H211, 120 h): 0.0125 µM | GI Amax ncih211 (ncih211): −89.36 | GI50 (ncih524; Homo sapiens, NCI-H524, 120 h): 0.00827 µM | GI Amax ncih524 (ncih524): −83.85

Structure (SMILES): CC1(C)CCC(CN2CCN(c3ccc(C(=O)NS(=O)(=O)c4ccc(NCC5CCOCC5)c([N+](=O)[O-])c4)c(Oc4cnc5[nH]ccc5c4)c3)CC2)=C(c2ccc(Cl)cc2)C1 [Venetoclax, venetoclax]
GI50 (corl279): > 10 µM | GI Amax corl279 (corl279): 98.71 | GI50 (ncih1436): 4.92 µM | GI Amax ncih1436 (ncih1436): 13 | GI50 (ncih146): 0.789 µM | GI Amax ncih146 (ncih146): −16.83 | GI50 (ncih211): 3.92 µM | GI Amax ncih211 (ncih211): 30.85 | GI50 (ncih524): > 10 µM | GI Amax ncih524 (ncih524): 105.21

Structure (SMILES): CC(=O)O[C@@]12CO[C@@H]1C[C@H](O)[C@@]1(C)C(=O)[C@H](O)C3=C(C)[C@@H](OC(=O)[C@H](O)[C@@H](NC(=O)OC(C)(C)C)c4ccccc4)C[C@@](O)([C@@H](OC(=O)c4ccccc4)[C@H]21)C3(C)C [docetaxel]
Response on day 21 T/C (%) ([1]; day 21): 51% | ΔTumor volume (mm^3) D21 ([1]; day 21, mean): 396.59 mm^3 | Maximum regression (day) ([1]; maximum on D7): −1 | Significance On D21 vs Isotype-DANAPA-L109A-P1-ADC group ([1]; vs IgG CysMab DANAPA-L109A-P1 ADC + docetaxel, printed with (growth)): P < 0.05 (growth)
